The source of these data is US11078164B1, “PTEN binding compounds, formulations, and uses thereof” (University of South Florida, priority 2017, dated 2021).

Type in all cases: cell-based
One test relates to p-AKT (Ser473). The experiment in a line: Immunoblot of p-AKT (Ser473) in treated A549 cells. The conditions noted are these: 6 hours; for expression of p-AKT (Ser473), immunoblot: 40 μM, n=3; for decrease in phosphorylated, active form of AKT (pAKT-Ser473): about 40 μM. On the procedure:
(§1) PTEN antagonizes PI3K/AKT/S6K pathway activation via its lipid phosphatase function (Stambolic et al., 1998, Cell, October 2; 95(1):29-39, Sun H., et al., 1999, Proc Natl Acad Sci USA. 1999 May 25; 96(11):6199-204 and Song, M. S. et al., 2012, Molecular Cell Biology 13, 283-296). A549 lung adenocarcinoma cells were treated with either γ-AAPeptide #43 or #9 for 6 hours to determine the activity of PI3K/AKT/S6K downstream pathway effectors. There was about a 30 percent and about 70 decrease in the phosphorylated, active form of AKT (pAKT-Ser473) upon treatment with 40 μM γ-AAPeptide #43 (FIG. 2A) or about 40 μM γ-AAPeptide #9 (FIG. 2B) respectively. […] However, direct allosteric effects of these compounds on the structure and catalytic function of the PTEN enzyme activity remains highly plausible.
(§2) Protein Isolation and Immuno-blotting. For treatment with γ-AAPeptides, A549 cells were grown to about 50-60% confluency in 6-well plates, treated with indicated amount of γ-AAPeptide and allowed to incubate for 6 hours at about 5% CO2 and 37° C. After about 6 hours, media was aspirated and cells were lysed in ice cold IP Lysis Buffer (25 mM Tris-HCl pH 7.4, about 150 mM NaCl, about 1% NP-40, about 1 mM EDTA, about 5% glycerol) supplemented with about 100× protease inhibitor cocktail (Sigma Aldrich, St. Louis, Mo.), phosphatase inhibitor cocktail (final concentration about 10 mM sodium azide, about 10 mM NaF, about 4 mM sodium orthovanadate, about 10 mM sodium-molybdate dehydrate, about 4 mM sodium-tartrate dibasic dehydrate, about 5 mM EDTA disodium dehydrate, about 2 mM imidazole), about 1 mM DTT and about 1 mM PMSF. Samples were sonicated at about 10% amplitude on a digital sonifier (Branson Ultrasonics, Dabury, Conn.), centrifuged at about 14,000 rpm for about 10 minutes and the supernatant was collected. Protein concentration was determined using Bradford Dye Reagent (BioRad, Hercules, Calif.). The remaining supernatant was boiled in about 100 μL of 2× Laemmli Buffer containing about 5% β-mercaptoethanol (Sigma Aldrich, St. Louis, Mo.) and subjected to SDS-PAGE gel analysis, followed by immunoblotting. About 20 μg of total proteins from A549 cell extract were separated on a about 12% SDS-PAGE gel and electro-blotted to nitrocellulose membranes (about 0.45 μm; GE Healthcare, Pittsburgh, Pa.). Blots were blocked with about 5% nonfat dry milk or bovine serum albumin in TBST buffer (about 10 mM Tris, pH about 8, about 150 mM NaCl, about 0.1% Tween 20) and incubated with indicated primary antibodies (Table 1). Peroxidase conjugated mouse or rabbit secondary antibodies were used at dilution of about 1:10,000 (Jackson ImmunoResearch, West Grove, Pa.). […]

The subject of a further test is p-P70 S6K (Thr389). The experiment in a line: Immunoblot of p-P70 S6K (Thr389) in treated A549 cells. The conditions noted are these: 40 μM, 6 hours; for expression of p-P70 S6K (Thr389), immunoblot: n=3. As for the experimental part:
as §1, §2

Test [1] has as its system PTEN C-terminus (C-tail) cluster (Ser380, Thr382, Thr383, Ser385). The experiment in a line: Immunoblot of PTEN C-tail phosphorylation in treated A549 cells. Conditions: about 40 μM. As for the experimental part:
as §1
Protein Isolation and Immuno-blotting. For treatment with γ-AAPeptides, A549 cells were grown to about 50-60% confluency in 6-well plates, treated with indicated amount of γ-AAPeptide and allowed to incubate for 6 hours at about 5% CO2 and 37° C. […] Protein concentration was determined using Bradford Dye Reagent (BioRad, Hercules, Calif.). […]

The subject of test [2] is A549 cells. The experiment in a line: Cell proliferation assay (Cell Counting Kit-8). The conditions noted are these: 24 hours treatment; 9000 cells/well; n=6. On the procedure: Proliferation Assays. Cell proliferation studies were performed using the Cell Counting Kit-8 (Dojindo Molecular Technologies, Rockville, Md.). A549 cells were plated in a 96-well plate with a cell density of about 9000 cells/well and cultured in F12K medium as described above. Cells were treated with indicated amount of γ-AAPeptide diluted in F12K media for 24 hours. After 24 hours, final cell numbers were assessed as a function of absorbance at 450 nm of reduced WST-(2-(2-methoxy-4-nitrophenyl)-3-(4-nitrophenyl)-5-(2,4-disulfophenyl)-2H-tetrazolium, monosodium salt).
Background: Tetrazolium assays rely on reduction of a dye to a coloured formazan, in cell work by metabolically active cells.

Test [3] deals with A549 cells. The experiment in a line: ECIS migration / wound closure assay. The conditions noted are these: for wound closure efficiency (continuous impedance sensing): A549 cells, 12 hours prior to wounding, vs control cells; for cell migration (ECIS): A549 lung cancer cells. As for the experimental part: Migration Assay. Migration assay was performed on the ECIS machine (Name, Address). Briefly, A549 cells were grown on electric cell substrate impedance sensing 8-well plate arrays (8W1E; Applied Biophysics, Troy, N.Y.) in F12K media as described above. Confluent cells were treated with media containing γ-AAPeptide at desired concentration for about 12 hours prior to wounding. Cells were wounded using an elevated field pulse of about […] at about 32,000 Hz applied for about 20 seconds, producing a uniform circular lesion of about […] in size, and wound closure was tracked until healing. The impedance (Z) was measured at about 32000 Hz, normalized to its value at the initiation of data acquisition, and plotted as a function of time. Assays were performed in triplicate and reported as mean±S.E. unless stated otherwise (p value of ≤0.05 was considered to be significant).

For test [4], the system named is A549 cells. The experiment in a line: Flow cytometry cell cycle analysis. Conditions: for cell cycle arrest: 24 hour treatment, vs vehicle treated cells. As for the experimental part:
Flow Cytometry Assay for Cell Cycle Analysis. Cell cycle analysis was performed on A549 cells treated with indicated amount of γ-AAPeptide at about 50-60% confluency for about 24 hours. After about 24 hours of indicated γ-AAPeptide treatment, cells were trypsinized and centrifuged at about 2,000 rpm for about 10 minutes. Media and trypsin were aspirated and cells were washed twice with PBS and spun at about 2,000 rpm for about 10 minutes at about 4° C. after each wash. Cells were then stained with trypan blue (Thermo Fisher Scientific, Waltham, Mass.) and counted using a hemocytometer. Cells were resuspended in Phosphate Buffered Saline (PBS) at a density of about 2×10^6 cells/mL. 1 mL of cells was fixed in about 3 mL ice cold absolute ethanol for about 1 hour at about 4° C. After fixing, cells were washed twice with PBS and spun at about 3,000 rpm for about 10 minutes at about 4° C. after each wash. About 1 mL of Propidium Iodide (P1) staining solution (about 3.8 mM sodium citrate, about 40 μg/mL PI and PBS to volume) was added to each cell pellet, along with about 50 μL of RNase A (Qiagen, Hilden, Germany) at a concentration of about 10 μg/mL. Cells were incubated at about 37° C. for about 20 minutes and sub-sequentially stored at 4° C. until analyzed by flow cytometry. Assays were performed in triplicate and reported as mean±S.E. (p value of ≤0.05 was considered to be significant).

Entries after “also recorded” stand apart in the source; their conditions may differ.

For `NCCCC[C@H](N)C(=O)N[C@@H](Cc1ccccc1)CN(CC(=O)N(Cc1cccc2ccccc12)Cc1cccc2ccccc12)C(=O)C[C@]12CC3C[C@H](C[C@H](C3)C1)C2` [#9], in the test on p-AKT (Ser473), the “expression of p-AKT (Ser473), immunoblot” value is “significant decrease” and the “decrease in phosphorylated, active form of AKT (pAKT-Ser473)” value is given as “about 70%”. In the test with p-P70 S6K (Thr389), the “reduction of phosphorylated, active form of P70S6K (p-P70S6K-Thr389) levels” value was “about 55%” and the “expression of p-P70 S6K (Thr389), immunoblot” value was “significant decrease”. In addition, the “phosphorylation status of the PTEN C-terminus (C-tail) cluster” value in test [1] was “did not appear to alter”. In addition, the A549 cell proliferation result in the test with A549 cells [2] is reported as “reduced A549 cell proliferation in a dose dependent manner; also recorded: Dose-dependent inhibition”. For the same compound, in the test with A549 cells [3] (20 μM), the “wound closure efficiency (continuous impedance sensing)” value was “decrease in wound closure efficiency”. Moreover, in the test on A549 cells [3], the “cell migration (ECIS)” value was “inhibit cell migration”. Also, in the test on A549 cells [4] (20 μM, 24 hours), the G1 cell population result is listed as “increase”, the “G2 phase cell population” value was “increase” and the S phase population entry is “decreased”. The cell cycle arrest entry with A549 cells [4] is “arrested the cell cycle in both G1 and G2 phases”.
For `NCCCC[C@H](N)C(=O)N[C@@H](Cc1ccccc1)CN(CC(=O)NCc1ccc(-c2ccccc2)cc1)C(=O)CC12CC3CC(CC(C3)C1)C2` [#43], in the test with p-AKT (Ser473), the “expression of p-AKT (Ser473), immunoblot” value is given as “significant decrease” and the “decrease in phosphorylated, active form of AKT (pAKT-Ser473)” value is around 30%. Also, in the test with p-P70 S6K (Thr389), the “reduction of phosphorylated, active form of P70S6K (p-P70S6K-Thr389) levels” value was “about 75%” and the “expression of p-P70 S6K (Thr389), immunoblot” value was “significant decrease”. Besides, the “phosphorylation status of the PTEN C-terminus (C-tail) cluster” value in test [1] was “did not appear to alter”. Further, in the test on A549 cells [2], the A549 cell proliferation result was “reduced A549 cell proliferation in a dose dependent manner; also recorded: Dose-dependent inhibition”. In the test on A549 cells [3] (30 μM), the “wound closure efficiency (continuous impedance sensing)” value is listed as “decrease in wound closure efficiency”. Also, the “cell migration (ECIS)” value in the test with A549 cells [3] is on record as “inhibit cell migration”. Besides, in the test on A549 cells [4] (40 μM, 24 hours), the G1 cell population entry is on record as “increase”, the “G2 phase cell population” value is given as “decreased” and the “S phase cell population” value is given as “decreased”. In addition, in the test with A549 cells [4], the cell cycle arrest result is recorded as “arrest cells in G1 phase”.
